IC50 data for 10 compounds are collected here from US12358907B2, “Substituted pyrrolidine amides III” (GRÜNENTHAL GMBH, priority 2019, dated 2025).

Like-named read-outs stand apart in the source and are kept apart here. Some results are limits rather than exact numbers.

This assay deals with glucocorticoid receptor (GAL4 DBD-GR) (Homo sapiens (Human), UniProt P04150). Briefly: GR cell-based assays (GRE agonist / GRE antagonist), CHO-Gal4/GR luciferase reporter. The text has this: Potential selective glucocorticoid receptor modulators of this intervention can be tested for modulation of the activity of the glucocorticoid receptor using cell-based assays. These assays involve a Chinese hamster ovary (CHO) cell line which contains fragments of the glucocorticoid receptor as well as fusion proteins. The glucocorticoid receptor fragments used are capable of binding the ligand (e.g. beclomethasone) to identify molecules that compete for binding with glucocorticoid receptor ligands. In more detail, the glucocorticoid receptor ligand binding domain is fused to the DNA binding domain (DBD) of the transcription factor GAL4 (GAL4 DBD-GR) and is stably integrated into a CHO cell line containing a GAL4-UAS-Luciferase reporter construct. […] After cell lysis the luminescence that is produced by luciferase after addition of the substrate is detected and EC50 or IC50 values can be calcuated. Engagement of molecules which induce gene expression via glucocortocoid receptor binding to the DNA leads to expression of the luciferase gene under the control of the fusion protein GAL4 DBD-GR and therefore to a dose-dependent increase of the luminescence signal. Binding of molecules which repress beclomethasone-induced gene expression of the luciferase gene under the control of the fusion protein GAL4 DBD-GR leads to a dose-dependent reduction of the luminescence signal.
glucocorticoid receptor (GAL4 DBD-GR), sequence (P04150 524-758): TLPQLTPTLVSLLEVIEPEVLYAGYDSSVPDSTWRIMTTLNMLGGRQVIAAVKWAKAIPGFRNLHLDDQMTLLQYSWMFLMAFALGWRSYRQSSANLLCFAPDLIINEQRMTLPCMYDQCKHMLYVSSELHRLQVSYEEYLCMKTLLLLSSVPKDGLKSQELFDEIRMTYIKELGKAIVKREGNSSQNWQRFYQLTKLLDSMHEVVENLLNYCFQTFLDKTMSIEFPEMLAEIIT
The reporter cell line CHO-Gal4/GR consisted of a chinese hamster ovary (CHO) cell line (Leibniz Institute DSMZ—German Collection of Microorganisms and Cell Cultures GmbH: ACC-110) containing a firefly luciferase gene under the control of the GR ligand binding domain fused to the DNA binding domain (DBD) of GAL4 (GAL4 DBD-GR) stably integrated into CHO cells. This cell line was established by stable transfection of CHO cells with a GAL4-UAS-Luciferase reporter construct. In a subsequent step the ligand binding domain of the GR cloned into pIRES2-EGFP-GAL4 containing the DNA binding domain of GAL4 from pFA-AT2 was transfected. This fusion construct activated firefly luciferase expression under the control of a multimerized GAL4 upstream activation sequence (UAS). The signal of the emitted luminescence was recorded by the FLIPR^TETRA. This allowed for specific detection of ligand-induced activation of the GR and therefore for the identification of compounds with agonistic properties. The GAL4/UAS reporter was premixed with a vector that constitutively expressed Renilla luciferase, which served as an internal positive control for transfection efficiency.
The complete culture medium for the assay was: • DMEM F-12 (1:1) MIXTURE (LONZA cat. No: BE04-687F/U1) 500 mL • 5 mL of 100 mM Sodium Pyruvate (LONZA cat. No: BE12-115E) • 25 mL of 7.5% Sodium Bicarbonate (LONZA cat. No BE17-613E) • 6.5 mL of 1 M Hepes (LONZA cat. No: BE17-737E) • 5 mL of 100× Penicillin/Streptomycin (LONZA cat. No DE17-602E) • 50 mL of Fetal Bovine Serum (Euroclone cat. No ECS 0180L) • 0.25 mL of 10 mg/mL Puromycin (InvivoGen cat.: ant-pr-1) • 0.5 mL of 100 mg/mL Zeocin (InvivoGen cat.: ant-zn-1)
Cryo-preserved CHO-Gal4/GR cells were suspended in complete medium and 5000 cells/25 μl/well were seeded into the wells of 384-well polystyrene assay plates (Thermo Scientific, cat. #4332) and cultured at 37° C., 5% CO2 and 95% humidity. After 24 hours growth medium was carefully removed and replaced by 30 μl Opti-MEM (GIBCO, cat. #31985062) as assay buffer. To test the compounds an 8-point half-log compound dilution curve was generated in 100% DMSO starting from a 2 mM stock and compounds were then diluted 1:50 in Opti-MEM. 10 μl of compounds were then added to the wells containing 30 μl Opti-MEM resulting in a final assay concentration range from 10 μM to 0.003 μM in 0.5% DMSO. Compounds were tested at 8 concentrations in quadruplicate data points. […] Finally, cells were lysed with 20 μl of Triton/Luciferin solution and the signal of the emitted luminescence was recorded at the FLIPR^TETRA for 2 minutes. […]

Setting [1] is: CHO-Gal4/GR reporter cells, agonist mode (EC50) or antagonist mode against beclometasone (IC50), 6 hour incubation.

By IC50 is commonly meant the concentration that gives 50% inhibition. Consider `CC[C@@H]1[C@@H](NS(C)(=O)=O)[C@H](Cc2ccccc2)C(=O)N1c1ccc2c(cnn2-c2ccc(F)cc2)c1` (racemic) [Example 91, N-[rac-(2R,3S,4S)-4-Benzyl-2-ethyl-1-[1-(4-fluorophenyl)-1H-indazol-5-yl]-5-oxo-pyrrolidin-3-yl]-methanesulfonic acid amide], for which the IC50 (read-out: IC50 or EC50) was 1000 to 15000 nM. Regarding `O=C(N[C@@H]1[C@@H](c2ccccc2)N(c2ccc3c(cnn3-c3ccc(F)cc3)c2)C(=O)C12CCC2)C1CC1` [Example 135, N-((7R,8S)-6-(1-(4-fluorophenyl)-1H-indazol-5-yl)-5-oxo-7-phenyl-6-azaspiro[3.4]octan-8-yl)cyclopropanecarboxamid], under setting [1], the IC50 is below 100 nM. Take `C[C@H]1C(=O)N(c2ccc3c(cnn3-c3ccc(F)cc3)c2)[C@H](c2ccccc2Cl)[C@H]1NC(=O)c1ncccn1` (racemic) [Example 88, N-[rac-(2R,3S,4R)-2-(2-Chlorophenyl)-1-[1-(4-fluorophenyl)-1H-indazol-5-yl]-4-methyl-5-oxo-pyrrolidin-3-yl]-pyrimidine-2-carboxylic acid amide]: the IC50 (read-out: IC50 or EC50) was below 100 nM.

For `C[C@@H]1C(=O)N(c2ccc3c(cnn3-c3ccc(F)cc3)c2)[C@H](c2ccc(Cl)s2)[C@H]1NC(=O)c1ncccn1` (racemic) [Example 109, N-[rac-(2S,3S,4S)-2-(5-Chloro-thiophen-2-yl)-1-[1-(4-fluorophenyl)-1H-indazol-5-yl]-4-methyl-5-oxo-pyrrolidin-3-yl]-pyrimidine-2-carboxylic acid amide], the 50% inhibitory concentration (IC50) (read-out: IC50 or EC50) is below 100 nM. For the compound `CC1(C)C(=O)N(c2ccc3c(cnn3-c3ccc(F)cc3)c2)[C@@H](c2ccccc2)[C@@H]1NC(=O)c1cccnc1` [Example 42b, N-((2S,3R)-1-(1-(4-fluorophenyl)-1H-indazol-5-yl)-4,4-dimethyl-5-oxo-2-phenylpyrrolidin-3-yl)nicotinamide], where the note is “read-out: IC50 or EC50”, the IC50 fell in the range of 100 to 1000 nM. `O=C(N[C@H]1[C@H](F)C(=O)N(c2ccc3c(cnn3-c3ccc(F)cc3)c2)[C@@H]1c1ccccc1)C1CC1` [Example 95, N-((2R,3R,4S)-4-fluoro-1-(1-(4-fluorophenyl)-1H-indazol-5-yl)-5-oxo-2-phenylpyrrolidin-3-yl)cyclopropanecarboxamide] returned a concentration for half-maximal inhibition (IC50) under setting [1] below 100 nM.

`CC1(C)C(=O)N(c2ccc3c(cnn3-c3ccc(F)cc3)c2)[C@H](c2ccccc2)[C@H]1NS(=O)(=O)C1CC1` [Example 35a, N-((2R,3S)-1-(1-(4-fluorophenyl)-1H-indazol-5-yl)-4,4-dimethyl-5-oxo-2-phenylpyrrolidin-3-yl)cyclopropanesulfonamide] gave an IC50 under setting [1] below 100 nM. As to `C[C@H]1C(=O)N(c2ccc3c(cnn3-c3ccc(F)cc3)c2)[C@H](c2ccccc2Cl)[C@H]1NS(C)(=O)=O` (racemic) [Example 86, N-[rac-(2R,3S,4R)-2-(2-Chlorophenyl)-1-[1-(4-fluorophenyl)-1H-indazol-5-yl]-4-methyl-5-oxo-pyrrolidin-3-yl]-methanesulfonic acid amide], the half-inhibitory concentration (IC50) (read-out: IC50 or EC50) was below 100 nM.

As to `CC1(C)C(=O)N(c2ccc3c(cnn3-c3ccc(F)cc3)c2)[C@H](c2ccccc2)[C@H]1NC(=O)c1cnco1` [Example 36a, N-((2R,3S)-1-(1-(4-fluorophenyl)-1H-indazol-5-yl)-4,4-dimethyl-5-oxo-2-phenylpyrrolidin-3-yl)oxazole-5-carboxamide], the half-inhibitory concentration (IC50) (read-out: IC50 or EC50) is 100 to 1000 nM. Still for that read-out and setting: the figure for `Cc1cccc([C@@H]2[C@@H](NS(C)(=O)=O)[C@H](C)C(=O)N2c2ccc3c(cnn3-c3ccc(F)cc3)c2)c1` (racemic) [Example 62, N-[rac-(2R,3S,4S)-1-[1-(4-Fluorophenyl)-1H-indazol-5-yl]-4-methyl-2-m-tolyl-5-oxo-pyrrolidin-3-yl]-methanesulfonic acid amide] is 100 to 1000 nM.
